“Also recorded” adds a separate entry of the source.
What was measured:
[1] = test system: PC12^rtTA cells; assay: p75NTR- or NRAGE-induced cell death of PC12rtTA cells (LDH release assay); format: cell-based; conditions: for protection from Adp75- or AdNRG-induced cell death: increasing concentrations, LDH
Method: FIGS. 2A and 2B are graphs showing that compound 1 inhibits p75NTR or NRAGE induced JNK activation and cell death. Compound 1 inhibits NRAGE (A) or p75NTR (B) mediated cell death. PC12^rtTA cells were infected with recombinant adenoviruses expressing full-length NRAGE (AdNRG) at 5 MOI, full length p75NTR (Adp75) at 50 or 100 MOI, or the control protein β-galactosidase (AdLacZ) (at 5 MOI in (A) and 50 MOI in (B)). At time of infection, the cells were treated with an increasing concentration of compound 1, or with vehicle alone, as indicated. After 40 hours, cells were assayed for death using the lactate dehydrogenase (LDH) assay; untreated cells (Un) and cells treated with 1% Triton X-100 (Tx) were used to delineate the output range of the assay. Results are normalized relative to those obtained with 1% Triton (Tx), and represent the mean±standard deviation of a representative experiment performed in triplicate (*=P<0.005 relative to no compound 1).
PC12^rtTA were infected with adenoviruses encoding p75NTR (Adp75), NRAGE (AdNRG), or as a control, LacZ (AdLacZ), and were concurrently exposed to increasing concentrations of compound 1 for a period of 40 hours. Cell death was assessed using an LDH release assay. […] Treatment with 40 μM compound 1 reduced p75NTR- or NRAGE-induced cell death by greater than 90%.
Cell culture, infection, transfection and immunoblotting. Sympathetic neurons were maintained and deprived of NGF as previously described (Bamji et al., 1998; Ma et al., 1992). PC12^rtTA cells were maintained and infected as previously described (Majdan et al., 1997; Salehi et al., 2002); for NRAGE, […] doxycycline was added to all plates at time of infection. Wildtype and HSF1 nullizygous immortalized mouse embryonic fibroblasts (MEFs) were maintained in DMEM containing 10% fetal calf serum, 1 μM β-mercaptoethanol, 1% non-essential amino acids, 1% L-glutamine, 1% antimycotic solution and 1% sodium pyruvate (all from GibcoBRL). Sympathetic neuron survival was assessed using the MTS assay according to the manufacturer's instructions (Promega). Analysis of PC12 cell death was determined using a lactate dehydrogenase (LDH) assay (Roche) as per the manufacturer's instructions. Transfections using plasmids or RNAi were performed using Lipofectamine 2000. Immunoblotting was performed as previously described (Majdan et al., 1997; Salehi et al., 2002).

[2] = test system: HSP70; assay: HSP protein expression in PC12 / PC12rtTA cells (immunoblot); format: cell-based; conditions: for HSP70 production: PC12rtTA cells infected with AdNRG, Adp75 or AdLacZ, 30 hours (FIG. 6A)
Method: FIGS. 4A-4C are photographs of Western blots which illustrate that compound 1 treatment of PC12 cells induces expression of HSP70. A: PC12 cells were infected with 5 MOI of AdNRG (NRG) or AdLacZ (LacZ) as indicated. Cells were left untreated (0) or treated with 40 μM compound 1 at time of infection (30), one hour before lysis (1), or at both times (30+1). Cells were lysed thirty hours after infection, normalized for protein content, and analyzed for levels of phospho-Ser^63 c-Jun and total c-Jun, total JNK, IkBα, and NRAGE by immunoblotting. Lysates from untreated cells are indicated by ‘−’. B: PC12 cells were treated with the indicated concentrations of compound 1 for 18 hours and then lysed, normalized for protein content, and analyzed for levels of HSP70 by immunoblotting. Lysates from untreated cells are indicated by ‘−’. C: RNA isolated from PC12^rtTA cells treated with increasing concentrations of compound 1 for 18 hours was analyzed by rtPCR using primers specific to HSP70, HSP25, HSP90 or actin, as indicated. Experiments in Panel A and B were performed three times and that in Panel C was performed twice, with essentially identical results. D: PC12^rtTA cells were infected with AdNRG at 5 MOI, Adp75 at 50 MOI, or the control virus AdLacZ at 50 MOI. At time of infection, the cells were treated with increasing concentrations of compound 1, or with vehicle alone, as indicated. Thirty hours after infection, cells were lysed, normalized for protein content, and analyzed for levels of c-Jun phosphorylation, HSP70, HSP25, HSP40, NRAGE, p75NTR, JNK-1 and IkBα, as indicated.
FIGS. 6A, 6B and 6C are graphs and photographs of Western blots which illustrate that compound 1 analogues inhibit JNK activation and induce expression of HSP70. A: PC12^rtTA cells were infected with 5 MOI of AdNRG, 50 MOI of Adp75 or 50 MOI of the control virus AdLacZ. At time of infection, the cells were treated with an increasing concentrations of compound 1, or its analogues, compound 2, compound 3, compound 4, or with vehicle alone, as indicated. Thirty hours after infection, cells were lysed, normalized for protein levels, and analyzed for levels of HSP70, HSP25 and JNK-1, as indicated. B: PC12^rtTA cells were treated as above and after 40 hours infection were assayed for death using the lactate dehydrogenase (LDH) assay. Results are normalized relative to those obtained with 1% Triton, and represent the mean±standard deviation of a representative experiment performed in triplicate (*=P<0.025 relative to ‘0’ for each compound concentration). C: PC12^rtTA cells were infected with 50 MOI of LacZ or 5 MOI of AdNRG50 and at the time of infection, were treated with 40 μM compound 1, or its analogues, compound 2, compound 3, compound 4, or with vehicle alone, as indicated. Thirty hours after infection, cells were lysed, normalized for protein levels, and were analyzed for phosphorylated c-Jun, total c-Jun, NRAGE and JNK-1, as indicated. Experiments in Panel A and C were performed twice and that in B were performed twice, with essentially identical results.
To address this, SCG neurons were treated with compound 1 for 18 hours then lysed and assessed for HSP70 levels by immunoblot. Uninfected PC12rtTA cells were treated in a similar manner. […] To test if the accumulation of HSP70 induced by compound 1 reflected increased steady state levels of its mRNA, RNA was isolated from PC12 cells treated with increasing concentrations of compound 1 for 18 hours and the cell lysates subjected to semi-quantitative rtPCR. […] HSP protein levels were also assessed in PC12rtTA cells infected with AdLacZ, Adp75, or AdNRG, and at the same time, exposed to compound 1.

[3] = cells infected with LacZ or Adp75, increasing concentrations

## NS(=O)(=O)c1nn2cc(-c3ccc(N4CCOCC4)cc3)nc2s1 [Compound 2]
[1]; 40 hours
  protection from Adp75- or AdNRG-induced cell death: protected
[2]
  HSP70 production: robustly induced HSP70 production

## NS(=O)(=O)c1nn2cc(-c3ccccc3)nc2s1 [Compound 1]
[1]; 40 μM, 40 hours, LDH release
  reduction of p75NTR- or NRAGE-induced cell death: greater than 90%
[1]; 80 μM
  toxic effect in cells infected with the LacZ control: slight toxic effect
[1]; 80 μM (highest concentration tested)
  inhibition of p75NTR- or NRAGE-induced apoptosis: effectively inhibited apoptosis
[1]; 40 hours
  protection from Adp75- or AdNRG-induced cell death: strongly attenuated; also recorded: protected
[2]
  HSP70 production: induced HSP70 production
[2]; cells infected with AdNRG
  HSP70 levels versus AdNRG alone: substantially higher
[2]; [3]
  HSP40 protein level: not HSP40
  HSP70 and HSP25 protein levels: robust increase
[2]; uninfected PC12rtTA cells, 18 hours
  cellular HSP70 levels: large increase
